Read-outs that look alike come from different tables or passages of the source. Bridge positions count the residues as written; N and C are the ends. Square brackets hold non-standard residues; d marks the D form. Ends that are not written are not given here. Peptide text beside a SMILES is read from it. pGlu = O=C1CC[C@@H](C(=O)O)N1
Assays:
[1] = system: Malpighian tubules (MTs) of adult female A. aegypti; parameters: species or system Aedes aegypti; conditions: for Effect of single diuretic on fluid secretion: 25 nmol l^−1 DH31, 100 nmol l^−1 5HT, 10 nmol l^−1 DH44, 50 nmol l^−1 CDP, 60 min, Fig. 5A
Description: In order to determine fluid secretion rates, modified Ramsay assays were performed as described previously ([Lajevardi et al., 2021]; [Sajadi et al., 2018]). Female adults (4–7 days old) were dissected under physiological Aedes saline adapted from [Petzel et al. (1987)] that contained (in mmol l^−1): 150 NaCl, 25 Hepes, 3.4 KCl, 7.5 NaOH, 1.8 NaHCO3, 1 MgSO4, 1.7 CaCl2 and 5 glucose, and titrated to pH 7.1. Individual MTs were removed and placed in a Sylgard-lined Petri dish containing 20 µl bathing droplets [1:1 mixture of Schneider's Insect Medium (Sigma-Aldrich, Oakville, ON, Canada): Aedes saline], immersed in hydrated mineral oil to prevent evaporation. The proximal end of each tubule was wrapped around a minutien pin to allow for fluid secretion measurements. Dose response analysis for AedaeDH31 was determined by using concentrations ranging from 10^−5 to 10^−12 mol l^−1 on unstimulated MTs. To investigate the effects of collected haemolymph samples on fluid secretion rate, haemolymph samples from both non-blood-fed and blood-fed females were used against unstimulated MTs and allowed to incubate for 60 min before measurement of secreted fluid droplets. To investigate potential additive or synergistic activity, dosages of 25 nmol l^−1 AedaeDH31, 10 nmol l^−1 Rhodnius prolixus DH (CRF-related peptide, DH44), 50 nmol l^−1 CDP, 100 nmol l^−1 5HT, and 1 fmol l^−1 AedaeCAPA-1 were used ([Sajadi et al., 2018], [2020]).

AedaeDH31-R = assay: Heterologous receptor functional activation bioluminescence assay, AedaeDH31-R; type: cell-based, Aedes aegypti; conditions: for EC50: CHO-K1-aeq cells transiently expressing AedaeDH31-R (pBudCE4.1 Gα15), aequorin luminescence over 20 s, peptides tested up to 10 µmol l^−1, read-out: EC50 on DH31-R
Text: (§1) Gene-specific primers were designed to amplify the open reading frame of the AedaeDH31 receptor and Aedaekinin receptor based on previously published sequences [GenBank accession numbers: DH31-R, AAGE02017873 ([Kwon et al., 2012]); kinin-R, AY596453.1 ([Lu et al., 2011]); see Table 1]. The amplified PCR products were purified using a Monarch PCR purification kit (New England Biolabs, Whitby, ON, Canada) and reamplified using modified primers containing restriction sites for subsequent directional cloning in mammalian expression plasmids. Products were A-tailed and cloned into a pGEM-T Easy vector (Promega, Madison, WI, USA) or pCE2 TA/Blunt-Zero vector (GeneBio Systems, Burlington, ON, Canada) and then transformed into 5-alpha high efficiency competent E. coli (New England Biolabs, Whitby, ON, Canada). Base accuracy of purified plasmid DNA miniprep was confirmed by Sanger sequencing (The Centre for Applied Genomics, Sick Kids, Toronto, ON, Canada). The receptor constructs DH31-R and kinin-R were excised using standard restriction enzyme digestion and subcloned into the mammalian expression vectors, pBudCE4.1 Gα15 or pcDNA3.1^+ (Life Technologies, Burlington, ON, Canada), with the former containing a mammalian promiscuous G protein (Gα15), which facilitates coupling of a wide variety of GPCRs to calcium signaling ([Wahedi et al., 2019]). The previously characterized A. aegypti CAPA receptor inserted into pcDNA3.1^+ ([Sajadi et al., 2020]) was also used for transfection of mammalian cells. Plasmid DNA was purified from overnight bacterial cultures using the ZymoPURE II Plasmid Midiprep Kit (Zymo Research, Tustin, CA, USA) following manufacturer guidelines. These three heterologously expressed receptors were used to determine the timing of release and quantify the levels in the haemolymph of CAPA (both CAPA-1 and CAPA-2), DH31 along with kinin neuropeptides in association with blood feeding by adult female mosquitoes.
(§2) Functional activation of the AedaeDH31-R, AedaeCAPA-R, and Aedaekinin-R was assayed using a previously established recombinant Chinese hamster ovary (CHO)-K1 cell line stably expressing aequorin, referred to henceforth as CHO-K1-aeq cells ([Paluzzi et al., 2012a]; [Wahedi and Paluzzi, 2018]). […] Cells were grown and maintained in Dulbecco's modified eagles medium:nutrient F12 (DMEM:F12; 1:1) medium containing 10% heat-inactivated fetal bovine serum (FBS; Wisent, St. Bruno, QC, Canada), 1× antimycotic-antibiotic and 200 µg ml^−1 geneticin (G418 Sulfate). […] Approximately 48 h post-transfection, cells were dislodged from the culture flasks using 5 mmol l^−1 ethylenediaminetetraacetic acid (EDTA; Life Technologies, Burlington, ON, Canada) in DPBS and cells were resuspended in BSA medium (DMEM-F12 medium containing 0.1% bovine serum albumin, 1X antimycotic-antibiotic) at a concentration of 10^6–10^7 cells ml^−1 quantified using a Countess II FL cell counter (Thermo Fisher Scientific, Burlington, ON, Canada). Coelenterazine h (Promega, Madison, WI, USA) was added to the cells to a final concentration of 5 µmol l^−1 and incubated for 3 h, as described previously ([Oryan et al., 2018]) and subsequently, diluted 10-fold in BSA medium and incubated for an additional hour at room temperature. To measure in vivo circulating levels of DH31, kinin and CAPA in female mosquitoes, diluted haemolymph samples collected in 70 µl DPBS droplets (see section 3.2) were loaded in duplicates into 96-well white luminescence plates (Greiner Bio-One, Germany).

Aedaekinin-R = target: T1, Aedaekinin-R (Aedes aegypti, UniProt Q5EY37); assay: Heterologous receptor functional activation bioluminescence assay, Aedaekinin-R; type: cell-based
T1 sequence (Q5EY37 1-584): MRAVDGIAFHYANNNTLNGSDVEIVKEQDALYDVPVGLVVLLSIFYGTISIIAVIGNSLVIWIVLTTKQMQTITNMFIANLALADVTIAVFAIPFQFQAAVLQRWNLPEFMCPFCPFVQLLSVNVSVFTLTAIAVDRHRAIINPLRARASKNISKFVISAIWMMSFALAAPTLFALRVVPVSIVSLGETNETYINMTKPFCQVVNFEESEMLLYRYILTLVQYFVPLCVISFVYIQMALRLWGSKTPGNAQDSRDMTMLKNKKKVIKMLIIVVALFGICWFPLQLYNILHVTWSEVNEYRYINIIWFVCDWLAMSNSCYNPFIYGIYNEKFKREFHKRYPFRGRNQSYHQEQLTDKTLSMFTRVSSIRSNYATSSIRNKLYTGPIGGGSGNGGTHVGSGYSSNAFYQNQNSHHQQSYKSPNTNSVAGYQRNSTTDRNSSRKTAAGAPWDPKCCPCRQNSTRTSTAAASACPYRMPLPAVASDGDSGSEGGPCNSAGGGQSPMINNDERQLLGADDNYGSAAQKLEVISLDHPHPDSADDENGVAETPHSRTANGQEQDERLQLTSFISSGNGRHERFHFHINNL
Text: as §1, §2

AedaeCAPA-R = target: T2, AedaeCAPA-R (Aedes aegypti, UniProt A0A7D5D2Z2); assay: cell-based
T2 sequence (A0A7D5D2Z2 1-712): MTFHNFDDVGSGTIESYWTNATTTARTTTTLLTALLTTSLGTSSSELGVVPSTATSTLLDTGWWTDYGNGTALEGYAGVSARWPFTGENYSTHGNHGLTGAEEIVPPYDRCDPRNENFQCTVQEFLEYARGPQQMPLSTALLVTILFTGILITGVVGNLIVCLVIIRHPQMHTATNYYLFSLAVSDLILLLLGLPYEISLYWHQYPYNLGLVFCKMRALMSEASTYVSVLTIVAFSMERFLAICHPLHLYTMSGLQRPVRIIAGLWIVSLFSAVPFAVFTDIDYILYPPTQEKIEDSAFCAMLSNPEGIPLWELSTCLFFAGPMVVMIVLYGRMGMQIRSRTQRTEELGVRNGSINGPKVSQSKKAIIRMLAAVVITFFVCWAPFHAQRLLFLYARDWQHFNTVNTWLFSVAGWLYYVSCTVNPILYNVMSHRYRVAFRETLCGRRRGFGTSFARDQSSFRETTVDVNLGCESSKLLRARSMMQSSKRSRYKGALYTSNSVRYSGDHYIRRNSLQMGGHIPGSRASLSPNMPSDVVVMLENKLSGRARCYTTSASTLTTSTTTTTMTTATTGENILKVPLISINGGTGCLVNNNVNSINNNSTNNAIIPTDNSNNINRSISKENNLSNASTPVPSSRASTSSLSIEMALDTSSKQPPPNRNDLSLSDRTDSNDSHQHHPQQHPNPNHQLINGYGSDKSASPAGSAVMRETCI
Text: Gene-specific primers were designed to amplify the open reading frame of the AedaeDH31 receptor and Aedaekinin receptor based on previously published sequences [GenBank accession numbers: DH31-R, AAGE02017873 ([Kwon et al., 2012]); kinin-R, AY596453.1 ([Lu et al., 2011]); see Table 1]. The amplified PCR products were purified using a Monarch PCR purification kit (New England Biolabs, Whitby, ON, Canada) and reamplified using modified primers containing restriction sites for subsequent directional cloning in mammalian expression plasmids. […] These three heterologously expressed receptors were used to determine the timing of release and quantify the levels in the haemolymph of CAPA (both CAPA-1 and CAPA-2), DH31 along with kinin neuropeptides in association with blood feeding by adult female mosquitoes.
Functional activation of the AedaeDH31-R, AedaeCAPA-R, and Aedaekinin-R was assayed using a previously established recombinant Chinese hamster ovary (CHO)-K1 cell line stably expressing aequorin, referred to henceforth as CHO-K1-aeq cells ([Paluzzi et al., 2012a]; [Wahedi and Paluzzi, 2018]). […] To measure in vivo circulating levels of DH31, kinin and CAPA in female mosquitoes, diluted haemolymph samples collected in 70 µl DPBS droplets (see section 3.2) were loaded in duplicates into 96-well white luminescence plates (Greiner Bio-One, Germany).

[2] = CHO-K1-aeq cells transiently expressing Aedaekinin-R (pcDNA3.1+), aequorin luminescence over 20 s, peptides tested up to 10 µmol l^−1, read-out: EC50 on kinin-R

Compound	EC50 (AedaeDH31-R) [µM]	EC50 (Aedaekinin-R; [2]) [µM]	other results
NCCc1c[nH]c2ccc(O)cc12 [5HT, 5-hydroxytryptamine]	–	–	Effect of single diuretic on fluid secretion [1]: significantly increased fluid secretion
CC(C)[C@H](NC(=O)[C@@H]1CCC(=O)N1)C(=O)N[C@H](C(=O)N[C@@H](Cc1ccccc1)C(=O)N[C@@H](CO)C(=O)N[C@@H](CCCNC(=N)N)C(=O)N[C@@H](CC(=O)O)C(=O)N[C@@H](Cc1c[nH]c2ccccc12)C(=O)N[C@@H](CC(N)=O)C(=O)N[C@@H](C)C(N)=O)[C@@H](C)O [ACP] ([pGlu]VTFSRDWNA-NH2)	> 10	–	EC50 (Aedaekinin-R): > 10 µM
CC(C)C[C@H](NC(=O)[C@@H]1CCC(=O)N1)C(=O)N[C@H](C(=O)N[C@@H](Cc1ccccc1)C(=O)N[C@H](C(=O)N1CCC[C@H]1C(=O)N[C@@H](CO)C(=O)N[C@@H](Cc1c[nH]c2ccccc12)C(N)=O)[C@@H](C)O)[C@@H](C)O [AKH] ([pGlu]LTFTPSW-NH2)	> 10	–	EC50 (Aedaekinin-R): > 10 µM
CC(C)C[C@@H]1NC(=O)[C@@H](NC(=O)CNC(=O)CNC(=O)[C@@H](N)CCCCN)CSSC[C@@H](C(=O)N[C@@H](Cc2c[nH]c3ccccc23)C(=O)NCC(=O)NCC(=O)N[C@@H](Cc2c[nH]cn2)C(N)=O)NC(=O)[C@H](CO)NC(=O)[C@H](Cc2c[nH]cn2)NC(=O)CNC(=O)[C@H](Cc2ccc(O)cc2)NC(=O)[C@H](CO)NC1=O [CCHa1] (H-KGGCLSYGHSCWGGH-NH2; disulfide 4-11 (inferred); N-terminus assumed)	> 10	–	–
C[C@@H]1NC(=O)[C@H](C)NC(=O)[C@@H](NC(=O)CN)CSSC[C@@H](C(=O)N[C@@H](Cc2ccc(O)cc2)C(=O)NCC(=O)NCC(=O)N[C@@H](Cc2c[nH]cn2)C(N)=O)NC(=O)[C@H](C)NC(=O)[C@H](Cc2c[nH]cn2)NC(=O)CNC(=O)[C@H](Cc2ccccc2)NC1=O [CCHa2] (H-GCAAFGHACYGGH-NH2; disulfide 2-9 (inferred); N-terminus assumed)	> 10	–	–
CSCC[C@H](NC(=O)[C@H](CC(N)=O)NC(=O)[C@@H]1CSSC[C@H](NC(=O)[C@H](CC(C)C)NC(=O)[C@H](CO)NC(=O)[C@H](CCSC)NC(=O)[C@@H](N)Cc2ccc(O)cc2)C(=O)N[C@@H](Cc2c[nH]cn2)C(=O)N[C@@H](Cc2ccccc2)C(=O)N[C@@H](CCCCN)C(=O)N[C@@H](CC(C)C)C(=O)N1)C(N)=O [CNMa] (H-YMSLCHFKLCNM-NH2; disulfide 5-10 (inferred); N-terminus assumed)	> 10	–	–
AGNSGANSGMWFGPRL-NH2 [PK1]	> 10	> 10	–
GPTVGLFAFPRV-NH2 [CAPA1]	–	> 10	EC50 (AedaeCAPA-R): 0.00183 µM
MQRPQGPSLSVANPIEVLRSRLLLEIARRRMKEQDASRVSKNRQYLQQI-NH2 [DH44]	> 10	> 10	Luminescence response over background on AedaeDH31-R (AedaeDH31-R; 10^−6 mol l^−1 dose, Fig. 1B, n=3): no detectable activity; Effect of single diuretic on fluid secretion [1]: significantly increased fluid secretion
NPFHSWG-NH2 [CDP]	–	0.0115	–
PVFFVASRY-NH2 [RYa-1]	> 10	> 10	–
TVDFGLSRGYSGAQEAKHRMAMAVANFAGGP-NH2 [DH31]	–	> 10	EC50 [1]: 0.0136 µM

Source: PMC12633732, “Dynamics of release and activity of select neuropeptides post-bloodmeal in the female mosquito, Aedes aegypti” (The Journal of Experimental Biology, 2025)
